Measured values taken from patent US7759510B2, “Platinum complexes and methods of use” (University of South Florida, priority 2003, dated 2010).
Entries after “also recorded” stand apart in the source; their conditions may differ.

What was measured:
Stat3 [1] = test: Stat3 signaling, growth inhibition and apoptosis in cells that contain constitutive Stat3 activity; format: cell-based; settings: Src-transformed mouse fibroblasts, human tumor cells of the breast, prostate, mouse melanoma cells
From the text: Methods of the invention comprise inhibiting function of a STAT by contacting a cell expressing a STAT with a platinum complex of the invention wherein the complex is taken in or otherwise provided inside the cell. Platinum complexes of the invention can physically interact with the DNA-binding domain of Stat3 and thereby disrupts its ability to bind to DNA.

[2] = Reduction of CPA-7 platinum complex by glutathione (UV kinetics at 226 nm); format: physicochemical; settings: 20 μm CPA-7 in PBS/20% DMSO with 10 mM glutathione
Description: FIGS. 5A-C show inertness of CPA-7 platinum complex to reduction by glutathione. 20 μm CPA-7 in PBS/20% DMSO with […]. […] Reduction is attributed to room light.
FIGS. 5A-C show the inertness of CPA-7 to glutathione reduction. In the figures, 20 μm CPA-7 was added in PBS/20% DMSO with 10 mM glutathione. The readings were initiated in late evening where data points were collected every 10 minutes at the lambda max for CPA-7, 226 nm. […] Data was collected on a Varian Cary 50 fitted with a fibreoptic probe in the kinetics mode. The Cary 50 uses a pulsed Xenon lamp with discontinuous irradiation between readings. A 25-mL volumetric flask was used for the solution with a magnetic stirring bar at slow speed.

Stat3 [3] = molecular target: T1, Stat3 (Mus musculus, UniProt P42227); test: EMSA of nuclear extracts, Stat3 DNA-binding activity to hSIE probe; format: biochemical; settings: in vitro
T1 construct: Nuclear extracts were prepared from NIH3T3/hEGFR cell that overexpress human epidermal growth factor (EGF) receptor and stimulated with EGF; endogenous in cells; host or cells: NIH3T3/hEGFR fibroblasts, EGF-stimulated (6 ng/ml, 15 min), nuclear extract
Description: Nuclear Extract Preparation and Analysis by EMSA of HK-Designated Platinum Complexes.
Nuclear extracts were prepared from NIH3T3/hEGFR cell that overexpress human epidermal growth factor (EGF) receptor and stimulated with EGF (6 ng/ml) for 15 min. Nuclear extracts were pre-incubated with compounds for 30 min at room temperature prior to incubation with radiolabeled probe. The ^32P-labeled oligonucleotide probe used is hSIE (high affinity sis-inducible element, m67 variant, 5′-[…]-3′) (SEQ ID NO:1) that binds both Stat1 and Stat3.
Other platinum (IV) complexes were evaluated for inhibitory activity against STAT DNA-binding in vitro.

A549 cells = test: MTT assay, percent survival of A549 cells; format: cell-based; settings: A549; for IC50: Table 2, extrapolated from incomplete data (10-40 uM; CPA-31 10-30 μM), outside the measured range, read-out: Calculated IC 50 (uM concentration)
Description: 1. Prepare a suspension of A549 cells at 2×10^5 cells per mL in supplemented DMEM/F12 growth medium.
2. Plate 2×10^4 cells per well in a 96 well cell culture plate by adding 100 μL of stock suspension to each well.
3. For each platinum compound (already in solution), prepare a readily usable stock solution in DMEM/F12 medium.
4. For each compound generate triplicate trials of 0, 10, 20, 30, 40, 50, 60, and 70 μM concentration. This is achieved in situ by adding appropriate volumes of stock solution to each well along with the volume of untreated medium necessary to generate the desired concentration in a final volume of 200 μL.
5. Gently agitate plates to mix contents. Incubate at 37° C., 7% CO2 for 45 hours.
6. Add 20 μL of 5 mg/mL MTT solution (in PBS) to each well.
7. Gently agitate plates to mix contents and incubate an additional 3 hours to allow product development.
8. Remove plates from incubator and agitate to cause settling of formazan product.
9. Aspirate out liquid contents of each well using needle and syringe and discard.
10. Add 200 μL DMSO to each well to dissolve formazan product.
11. Agitate plates until all of the formazan product is in solution and no purple crystals remain on the bottom surface of the wells.
12. Read the absorbance of each well at […] using Varian software for Cary 50 UV-vis Spectrophotometer with fiber optic probe accessory.
(§1) MTT assays are used for the quantitative determination of cellular proliferation and activation and for the quantitation of in vitro tumor cell sensitivity to anti-cancer compounds. The assay is based on the cleavage of the yellow tetrazolium salt MTT into purple colored formazan by metabolically active cells. Solubilized formazan product can be photometrically quantitated using an ELISA plate reader. A decrease in the number of living cells results in a decrease in total metabolic activity which leads to a decrease in color formation. Platinum complexes of the present invention were tested in MTT assays using A549 cells to determine anti-cancer cell activity. […] FIGS. 1, 2, and 4 show percent survival versus platinum complex concentration in graphical form.
as §1, with “FIGS. 8, 9,” for “FIGS. 1, 2,”, “and 11” for “and 4”

T1 sequence (P42227 whole entry): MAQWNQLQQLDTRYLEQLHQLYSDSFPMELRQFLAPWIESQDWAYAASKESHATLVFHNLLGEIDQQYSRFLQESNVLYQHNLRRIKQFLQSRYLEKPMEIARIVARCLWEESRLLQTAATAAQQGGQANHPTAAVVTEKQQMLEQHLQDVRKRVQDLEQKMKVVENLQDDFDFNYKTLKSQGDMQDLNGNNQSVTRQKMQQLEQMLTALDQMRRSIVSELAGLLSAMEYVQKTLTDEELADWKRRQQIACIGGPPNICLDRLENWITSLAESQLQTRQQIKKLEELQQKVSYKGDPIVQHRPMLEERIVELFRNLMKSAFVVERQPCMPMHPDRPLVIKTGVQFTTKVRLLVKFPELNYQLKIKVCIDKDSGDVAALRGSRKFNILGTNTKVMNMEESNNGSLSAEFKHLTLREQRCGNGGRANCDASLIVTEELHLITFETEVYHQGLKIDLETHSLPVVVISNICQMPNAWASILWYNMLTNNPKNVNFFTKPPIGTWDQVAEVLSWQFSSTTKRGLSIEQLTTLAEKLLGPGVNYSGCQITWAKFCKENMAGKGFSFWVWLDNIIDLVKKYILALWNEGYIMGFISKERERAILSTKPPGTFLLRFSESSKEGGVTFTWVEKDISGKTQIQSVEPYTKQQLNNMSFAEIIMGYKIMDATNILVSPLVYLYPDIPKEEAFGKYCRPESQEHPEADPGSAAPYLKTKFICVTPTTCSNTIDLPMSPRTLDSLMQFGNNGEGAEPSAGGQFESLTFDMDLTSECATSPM

Row | Structure (SMILES) | Disruption of Stat3 activity / ability to bind its consensus binding sequence (Stat3 [3]) | Average Absorbance (A549 cells; Table 1, 10 μM) | Percent Survival (A549 cells; Table 1, 10 μM) [%] | Average Absorbance (A549 cells; Table 1, 20 μM) | Percent Survival (A549 cells; Table 1, 20 μM) [%] | Average Absorbance (A549 cells; Table 1, 30 μM) | Percent Survival (A549 cells; Table 1, 30 μM) [%] | Average Absorbance (A549 cells; Table 1, 40 μM) | Percent Survival (A549 cells; Table 1, 40 μM) [%] | IC50 (A549 cells) [µM] | Average Absorbance (A549 cells; Table 3, 10 μM) | Percent Survival (A549 cells; Table 3, 10 μM) [%] | Average Absorbance (A549 cells; Table 3, 20 μM) | Percent Survival (A549 cells; Table 3, 20 μM) [%] | Average Absorbance (A549 cells; Table 3, 30 μM) | Percent Survival (A549 cells; Table 3, 30 μM) [%] | Average Absorbance (A549 cells; Table 3, 40 μM) | Percent Survival (A549 cells; Table 3, 40 μM) [%] | Average Absorbance (A549 cells; Table 3, 50 μM) | Percent Survival (A549 cells; Table 3, 50 μM) [%] | other results
1 | [NH2][Pt]([NH2])([Cl])([Cl])([Cl])[N+](=O)[O-] [CPA-7] | strongly disrupt Stat3 activity | – | – | – | – | – | – | – | – | – | – | – | – | – | – | – | – | – | – | – | Cell growth inhibition and apoptosis (Stat3 [1]): induce cell growth inhibition and apoptosis; Stat3 signaling function (Stat3 [1]): abrogate Stat3 signaling function; Reduction by glutathione (GSH) [2]: stability against GSH reduction; also recorded: not appreciably reduced by GSH; Sensitivity to light (reduction by room light) [2]: sensitivity to light
2 | O=[N+]([O-])[Pt]1([Cl])([Cl])([Cl])[NH]CC[NH]1 [CPA-1] | – | – | – | – | – | – | – | – | – | – | – | – | – | – | – | – | – | – | – | – | Cell growth inhibition and apoptosis (Stat3 [1]): induce cell growth inhibition and apoptosis; Stat3 signaling function (Stat3 [1]): abrogate Stat3 signaling function
3 | N[N](c1cc([N+](=O)[O-])cc([N+](=O)[O-])c1)[Pt]([NH2])([NH2])([Cl])([Cl])[N+](=O)[O-] [CPA-43] | strongly disrupt Stat3 activity | 2.4150 | 102.2828 | 1.8554 | 78.5820 | 2.1451 | 90.8517 | 1.3030 | 55.1861 | 49.6 | 2.5840 | 105.7759 | 2.2922 | 93.8311 | 1.4833 | 60.7188 | 0.6479 | 26.5218 | 0.4641 | 18.9979 | Average Absorbance (A549 cells; Table 3, 60 μM): 0.6504; Percent Survival (A549 cells; Table 3, 60 μM): 26.6241%; Average Absorbance (A549 cells; Table 3, 70 μM): 0.5059; Percent Survival (A549 cells; Table 3, 70 μM): 20.7090%
4 | [NH2][Pt]([NH2])([Cl])([Cl])[N+](=O)[O-].c1ccc(-c2oc(-c3ccccc3)c3ccccc23)cc1 [CPA-41] | strongly disrupt Stat3 activity | 2.3706 | 100.4024 | 2.3827 | 100.9148 | 2.1124 | 89.4668 | 0.8648 | 36.6270 | 40.7 | 2.4500 | 100.2906 | 2.3805 | 97.4457 | 1.4686 | 60.1171 | 0.4210 | 17.2336 | 0.3647 | 14.9290 | Average Absorbance (A549 cells; Table 3, 60 μM): 0.5549; Percent Survival (A549 cells; Table 3, 60 μM): 22.7148%; Average Absorbance (A549 cells; Table 3, 70 μM): 0.5445; Percent Survival (A549 cells; Table 3, 70 μM): 22.2891%
5 | [NH2][Pt]([NH2])([Cl])([Cl])([N]1C(=O)CC(C(=O)O)NC1=O)[N+](=O)[O-] (stereo not shown) [CPA-55] | strongly disrupt Stat3 activity | 2.4481 | 103.6847 | 2.3731 | 100.5082 | 2.3268 | 98.5473 | 1.3780 | 58.3626 | 54.2 | 2.4587 | 100.6468 | 2.4875 | 101.8257 | 1.6902 | 69.1883 | 0.6503 | 26.6200 | 0.4894 | 20.0336 | Average Absorbance (A549 cells; Table 3, 60 μM): 0.7082; Percent Survival (A549 cells; Table 3, 60 μM): 28.9901%; Average Absorbance (A549 cells; Table 3, 70 μM): 0.5733; Percent Survival (A549 cells; Table 3, 70 μM): 23.4680%
